Results on one molecule are retold here after paper PMC6148246, “HS-1371, a novel kinase inhibitor of RIP3-mediated necroptosis” (Experimental & Molecular Medicine, 2018).

Assay [1] addresses T1, RIP3 (Homo sapiens, UniProt Q9Y572). The experiment in a line: Basal S227 auto-phosphorylation of RIP3 in HT-29 cells (immunoblot). Format: cell-based. Further details: RIP3-expressing HT-29 cells; endogenous in cells; host or cells: HT-29. Particulars: 10 μM, 9 h. Here is the method:
Cells were rinsed in cold phosphate-buffered saline (PBS) and lysed in M2 buffer containing 20 mM Tris at pH 7, 0.5% NP-40, 250 mM NaCl, 3 mM EDTA, 3 mM EGTA, 2 mM DTT, 0.5 mM PMSF, 20 mM β-glycerol phosphate, 1 mM sodium vanadate, and 1 μg/mL leupeptin. The cell extracts were subjected to western blot analysis. For immunoprecipitation, lysates were mixed and precipitated with antibody and protein A-agarose beads overnight or for 4 h at 4 °C. Bound proteins were removed by boiling in SDS and resolved by SDS-PAGE, and immunoblotting was visualized by enhanced chemiluminescence (ECL, Amersham).
RIP3 kinase activity is essential for TNF-induced necroptosis, and human S227 auto-phosphorylation sites of RIP3 are required for the interaction of RIP3 with its substrate MLKL[13],[14], which is indispensable for downstream necroptotic cell death signaling. To test the possible effects of the RIP3 inhibitors on necroptosis, HT-29 cells were treated with the kinase inhibitors, and RIP3 kinase activity was determined by examining its phosphorylation status.
Fig. 2 Novel inhibitors can block RIP3 S227 phosphorylation. a Western blotting showing various kinase inhibitor effects on RIP3 S227 auto-phosphorylation. HT-29 cells were treated with four tested kinase inhibitors (1308, 1336, 1338, and 1371, 10 μM) for 9 h. As a control, KK5101 (Trk alpha inhibitor) and HS829 (IKK beta inhibitor) were also treated at a concentration of 10 μM for 9 h. Prototypical necroptosis stimuli (TNF + zVAD + either cycloheximide or SMAC mimetic; hereafter referred to as TCZ or TSZ) were applied for 6 h. […] HT-29 cells were treated with 4 tested kinase inhibitors for 24 h, and cell viability was analyzed by MTT assay or phase-contrast microscopy. […] HT-29 cells were pretreated with necrostatin-1 (Nec-1, 40 μM), dabrafenib (DAB, 10 μM) or necrosulfonamide (NSA, 1 μM) for 2 h and then treated with TSZ for 6 h. […] HT-29 cells were pretreated with four tested kinase inhibitors for 2 h and then treated with TSZ for 6 h. Cell lysates were analyzed by immunoblotting. f HT-29 cells were pretreated with Nec-1 (40 μM), DAB (5 μM) or HS-1371 (5 μM) for 2 h and then treated with TSZ for 4 h. Cell lysates were immunoprecipitated with anti-RIP3 antibody. Immunoprecipitates and total lysates were analyzed by Western blotting
(In general: A western blot detects proteins with antibodies after separation by electrophoresis.)

Assay [2] addresses T1, RIP3. Nature of the assay: Mechanism of action / ATP competition study with RIP3 enzyme. Format: biochemical. As to conditions: 20 min pre-incubation; Michaelis-Menten and Lineweaver-Burk plots. How it is done: To understand the interaction modes of these inhibitors within RIP3, the mechanisms of action studies including ATP competition were further performed with HS-1371. A 20 min pre-incubation of the compound and RIP3 enzyme was performed to ensure HS-1371 binding to the enzyme and equilibration. The reactions were monitored every 5–15 min to obtain progress curves with a time course. At each time point, radioisotope signal (^33P) was converted into M phosphate transferred to substrate and was plotted against time. The slopes (or velocity; M/min) were then plotted against ATP concentrations to generate a Michaelis–Menten plot and a subsequent Lineweaver–Burk plot (double-reciprocal plot) using GraphPad Prism software (GraphPad Software Inc., San Diego, CA). The results were further analyzed with global fit using GraFit software.

The test system of assay [3] is RIP3 or MLKL-deficient cells. The experiment in a line: TSZ treatment of RIP3 or MLKL knockdown HT-29 cells (MTT assay). The format is cell-based, human. As to conditions: HT-29 shRIP3 or shMLKL, TSZ 24 h. Here is the method:
MISSION short-hairpin RNA (shRNA) plasmids targeting hRIP3 mRNA (NM_006871), hMLKL mRNA (NM_152649), and non-targeting control sequences (NM_027088) were obtained from Sigma-Aldrich. Lentiviral plasmids were transfected into 293TN cells (System Biosciences, LV900A-1) using Lipofectamine 2000 (Invitrogen, 11668019). Pseudoviral particles were collected 2 days after the transfection and infected into cells with polybrene (8 μg/mL). Infected cells were puromycin selected two days after infection, and knockdown was confirmed by immunoblotting.
HT-29 cells expressing RIP3 shRNA, MLKL shRNA, or non-silencing control were analyzed by western blotting (upper panel), and these cells were treated with TSZ (6 h for immunoblotting, 24 h for cell death assay). Cell lysates were analyzed by immunoblotting (middle panel), and cell viability was analyzed by MTT assay (bottom panel). The results are presented as means ± SEM. *P < 0.05, **P < 0.01, ***P < 0.001. b HS-1371 protected cells not only from TNF-induced necroptosis but also from TRAIL-induced necroptosis. […] Cell lysates were analyzed by immunoblotting, and cell viability was analyzed by MTT assay or phase-contrast microscopy. […] Cell lysates were analyzed by immunoblotting, and cell viability was analyzed by MTT assay (TC) or CellTiter-Glo Luminescent Cell Viability Assay Kit (TS). […]
In general terms: Tetrazolium dyes change colour on reduction, which living cells bring about.

In assay [4] the test system is 293T cells. The experiment in a line: RIP3 overexpression-induced cell death in 293T cells (PI staining). The format is cell-based, human. As to conditions: 293T transfected with Flag-RIP3, 20 h. How it is done: Fig. 6 Possibility of HS-1371 as a drug for necroptosis-related diseases. a, b HT-29 cells were pre- or post-treated with HS-1371 for indicated time points, and RIP3 phosphorylation (a) and cell death (b) were measured by western blotting or MTT assay. Data are presented as means ± SEM. *P < 0.05, **P < 0.01, ***P < 0.001. c HT-29 cells were treated with TSZ and then post-treated with HS-1371 for indicated time points, and then cell lysates were analyzed by immunoblotting (upper panel). Cell viability was analyzed by MTT assay. Data are presented as means ± SEM. *P < 0.05, **P < 0.01, ***P < 0.001. d Cells were treated with the same conditions as (c), and cell lysates were immunoprecipitated with anti-RIP3 antibody. […] 293T cells were transfected with Flag vector or Flag-RIP3, and 20 h after transfection, cells were stained with PI. PI-positive cells were analyzed by phase-contrast fluorescence microscopy

T1 sequence (Q9Y572 whole entry): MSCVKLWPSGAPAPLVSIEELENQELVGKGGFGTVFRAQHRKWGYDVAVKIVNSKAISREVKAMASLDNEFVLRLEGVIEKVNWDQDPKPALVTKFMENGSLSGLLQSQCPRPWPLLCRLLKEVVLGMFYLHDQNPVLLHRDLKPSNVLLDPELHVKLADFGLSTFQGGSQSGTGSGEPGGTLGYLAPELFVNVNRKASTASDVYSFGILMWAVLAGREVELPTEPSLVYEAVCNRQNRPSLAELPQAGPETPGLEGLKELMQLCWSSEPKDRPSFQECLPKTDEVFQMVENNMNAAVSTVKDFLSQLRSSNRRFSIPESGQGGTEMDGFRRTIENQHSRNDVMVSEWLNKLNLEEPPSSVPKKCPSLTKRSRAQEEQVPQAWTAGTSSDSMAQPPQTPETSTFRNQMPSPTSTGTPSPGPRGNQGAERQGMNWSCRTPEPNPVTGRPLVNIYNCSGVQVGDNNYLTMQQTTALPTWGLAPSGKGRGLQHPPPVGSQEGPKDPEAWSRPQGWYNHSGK

For `Cc1ccc(Oc2ccnc3cc(-c4cnn(C5CCNCC5)c4)ccc23)cc1` [HS-1371, 7-(1-(Piperidin-4-yl)-1H-pyrazol-4-yl)-4-(p-tolyloxy)quinoline], the “effect on S227 auto-phosphorylation of RIP3 at the basal level” value in assay [1] was “inhibitory effect”. Also, in assay [2], the “mechanism of action upon binding to RIP3” value was “time-independent and ATP-competitive”. Besides, the “cell viability in RIP3 or MLKL-deficient cells treated with TSZ” value in assay [3] is on record as “did not obviously affect cell viability”. Also, the “cell death by RIP3 ectopic expression (PI-positive staining)” value in assay [4] is “completely blocked”.
